Assay results: ChEMBL document CHEMBL4411290, “Rogersonins A and B, Imidazolone N-Oxide-Incorporating Indole Alkaloids from a verG Disruption Mutant of Clonostachys rogersoniana” (J Nat Prod, 2019)
The source made the active and inactive calls.

Legend:
Type in all cases: functional, cell-based
HeLa = experiment: Cytotoxicity against human HeLa cells assessed as reduction in cell viability at 50 uM incubated for 48 hrs by MTS assay
HOS = experiment: Cytotoxicity against human HOS cells assessed as reduction in cell viability at 50 uM incubated for 48 hrs by MTS assay
SH-SY5Y = experiment: Cytotoxicity against human SH-SY5Y cells assessed as reduction in cell viability at 50 uM incubated for 48 hrs by MTS assay
A549 = experiment: Cytotoxicity against human A549 cells assessed as reduction in cell viability at 50 uM incubated for 48 hrs by MTS assay
HepG2 = experiment: Cytotoxicity against human HepG2 cells assessed as reduction in cell viability at 50 uM incubated for 48 hrs by MTS assay
ACHN = experiment: Cytotoxicity against human ACHN cells assessed as reduction in cell viability at 50 uM incubated for 48 hrs by MTS assay
T-24 = experiment: Cytotoxicity against human T24 cells assessed as reduction in cell viability at 50 uM incubated for 48 hrs by MTS assay

Measured: Activity

CC1=[N+]([O-])[C@](Cc2c[nH]c3ccccc23)([C@H]2CC(=O)[C@@H](C)OC(=O)/C=C/[C@@H](O)CC[C@@H](C)OC2=O)NC1=O
inactive: HeLa | HOS | SH-SY5Y | A549 | HepG2 | ACHN | T-24

CC1=[N+]([O-])[C@](Cc2c[nH]c3ccccc23)([C@H](CC(=O)[C@H](C)O)C(=O)O[C@@H](C)CC[C@@H]2C=CC(=O)O2)NC1=O
inactive: HeLa | HOS | SH-SY5Y | A549 | HepG2 | ACHN | T-24
